Values quoted from earlier work in US12582603B2 (NTC S.r.l., priority 2017, dated 2026).

Conditions: at a pH of 6.4

Brc1c(N=C2NCCN2)ccc2nccnc12.O=C(O)C(O)C(O)C(=O)O [Brimonidine, 5-Bromo-6-(2-imidazolidinylideneamino)quinoxaline L-tartrate]
Fraction ionized: about 90%
